In series [1] the test system is southern root-knot nematode (Meloidogyne incognita). The experiment in a line: Meloidogyne incognita test (MELGIN). The class given is in vivo. The conditions noted are these: application rate 20 ppm, after 14 days, lettuce. On the procedure: 5. Meloidogyne incognita Test (MELGIN) • Solvent: 125.0 parts by weight of acetone To prepare a suitable active compound preparation, 1 part by weight of active compound is mixed with the stated amount of solvent and the concentrate is diluted with water to the desired concentration. Vessels are filled with sand, active compound solution, an egg/larvae suspension of the southern root-knot nematode (Meloidogyne incognita) and lettuce seeds. The lettuce seeds germinate and the plants develop. On the roots, galls are formed. After 14 days, the nematicidal effect in % is determined by the formation of galls. 100% means that no galls have been found; 0% means that the number of galls on the treated plants corresponds to the untreated control.

Series [2] relates to greenhouse red spider mite (Tetranychus urticae). The experiment in a line: Tetranychus urticae spray test, OP-resistant (TETRUR). The format is in vivo. The conditions noted are these: after 6 days, bean leaf discs. The protocol:
4. Tetranychus urticae Spray Test, OP-Resistant (TETRUR)
• Solvents: 78.0 parts by weight of acetone • 1.5 part by weight of dimethylformamide • Emulsifier: 0.5 part by weight of alkylaryl polyglycol ether
To produce a suitable preparation of active compound, 1 part by weight of active compound is mixed with the stated amounts of solvents and emulsifier, and the concentrate is diluted with emulsifier-containing water to the desired concentration.
Discs of bean leaves (Phaseolus vulgaris) which are infested by all stages of the greenhouse red spider mite (Tetranychus urticae) are sprayed with an active compound preparation of the desired concentration.
After 6 days, the efficacy in % is determined. 100% means that all of the spider mites have been killed; 0% means that none of the spider mites have been killed.

The nature of series [3]: log P by HPLC on reversed-phase columns (C 18), EEC directive 79/831 Annex V.A8. The class given is physicochemical. To be noted: for logP[a]: method [a]; for logP[b]: method [b]. In a few lines:
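Measured by reversed-phase C18 HPLC (LC-MS) with a linear 10→95% acetonitrile gradient. Acidic: pH 2.7, 0.1% formic acid. Neutral: pH 7.8, 0.001 M ammonium bicarbonate.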

As to `Cc1cc(F)c(-n2cnc3onc(C)c3c2=O)cc1SCC(F)(F)F` [Compound 194], the “nematicidal effect in % (formation of galls)” value (“nematicidal effect in %” below) in series [1] is listed as 100%. Besides, in series [2] (application rate 500 g/ha), the “efficacy in % (spider mites killed)” value worked out at 90%.
`Cc1nc2c(=O)n(-c3cc(SCC(F)(F)F)c(C)cc3C)cnc2s1` [Compound 72]: in series [3], the “logP[a]” value amounted to 2.92 and the “logP[b]” value is listed as 2.86. For the same compound, in series [1], the “nematicidal effect in %” value was 90%. Besides, the “efficacy in % (spider mites killed)” value in series [2] (application rate 500 g/ha) worked out at 90%.
On to `Cc1nn(C)c2ncn(-c3ccc(Cl)c([S+]([O-])CC(F)(F)F)c3)c(=O)c12` (centres unmarked) [Compound 37], for which, in series [3], the “logP[a]” value amounted to 2.01 and the “logP[b]” value is 1.98. Besides, the “nematicidal effect in %” value in series [1] was found to be 80%. Further, the “efficacy in % (spider mites killed)” value in series [2] (application rate 500 g/ha) was determined as 90%.
In the case of `Cc1cc(F)c(-n2cnc3cnn(CC4CC4)c3c2=O)cc1[S+]([O-])CC(F)(F)F` (centres unmarked) [Compound 169], the “nematicidal effect in %” value in series [1] is recorded as 100%. The “efficacy in % (spider mites killed)” value in series [2] (application rate 500 g/ha) stood at 100%.
For `Cc1cc(F)c(-n2cnc3ncsc3c2=O)cc1SCC(F)(F)F` [Compound 78], in series [3], the “logP[a]” value was found to be 2.51 and the “logP[b]” value came to 2.48. The “nematicidal effect in %” value in series [1] is 90%. Moreover, the “efficacy in % (spider mites killed)” value in series [2] (application rate 500 g/ha) is 90%.
On to `Cc1nc2c(=O)n(-c3cc([S+]([O-])CC(F)(F)F)c(C)cc3C)cnc2s1` (centres unmarked) [Compound 75], for which, in series [3], the “logP[a]” value was 1.84 and the “logP[b]” value turned out to be 1.81. Further, in series [1], the “nematicidal effect in %” value is listed as 80%. For the same compound, the “efficacy in % (spider mites killed)” value in series [2] (application rate 500 g/ha) worked out at 90%.
As for `Cc1cc(F)c(-n2c(C)nc3snc(C)c3c2=O)cc1SCC(F)(F)F` [Compound 209], in series [1], the “nematicidal effect in %” value turned out to be 100%. Further, in series [2] (application rate 500 g/ha), the “efficacy in % (spider mites killed)” value was determined as 90%.
For `Cc1cc(F)c(-n2c(C)nc3cnn(CC4CC4)c3c2=O)cc1[S+]([O-])CC(F)(F)F` (centres unmarked) [Compound 170], in that order: 100% and 100%.
In the case of `Cc1cc(F)c(-n2cnc3snc(C)c3c2=O)cc1SCC(F)(F)F` [Compound 202], the “nematicidal effect in %” value in series [1] came to 90%. The “efficacy in % (spider mites killed)” value in series [2] (application rate 500 g/ha) worked out at 90%.
Take `CC(C)(C)c1snc2ncn(-c3ccc(Cl)c([S+]([O-])CC(F)(F)F)c3)c(=O)c12` (centres unmarked) [Compound 118]: in series [3], the “logP[a]” value came out at 3.14 and the “logP[b]” value was found to be 3.08. Also, the “nematicidal effect in %” value in series [1] came to 90%. In series [2] (application rate 500 g/ha), the “efficacy in % (spider mites killed)” value was found to be 90%.
For `Cc1cc(Cl)c(-n2c(C)nc3cnn(C)c3c2=O)cc1[S+]([O-])CC(F)(F)F` (centres unmarked) [Compound 157], the “nematicidal effect in %” value in series [1] is recorded as 90%. The “efficacy in % (spider mites killed)” value in series [2] (application rate 500 g/ha) was found to be 100%.
On the same counts, the results for `CCn1ncc2nc(C)n(-c3cc(SCC(F)(F)F)c(C)cc3F)c(=O)c21` [Compound 160] are 100% and 100%.
Regarding `CCn1ncc2ncn(-c3cc(SCC(F)(F)F)c(C)cc3F)c(=O)c21` [Compound 159], the “nematicidal effect in %” value in series [1] stood at 100%. Besides, the “efficacy in % (spider mites killed)” value in series [2] (application rate 500 g/ha) was 100%.
Consider `Cc1cc(F)c(-n2cnc3c(C)nsc3c2=O)cc1[S+]([O-])CC(F)(F)F` (centres unmarked) [Compound 181], for which, in series [1], the “nematicidal effect in %” value is reported as 90%. In series [2] (application rate 500 g/ha), the “efficacy in % (spider mites killed)” value came to 100%.
Turning to `CCn1ncc2nc(C)n(-c3cc([S+]([O-])CC(F)(F)F)c(C)cc3F)c(=O)c21` (centres unmarked) [Compound 164], the “nematicidal effect in %” value in series [1] is 100%. The “efficacy in % (spider mites killed)” value in series [2] (application rate 500 g/ha) is reported as 100%.
For the compound `CCc1nc2cnn(C)c2c(=O)n1-c1cc([S+]([O-])CC(F)(F)F)c(C)cc1F` (centres unmarked) [Compound 147], the “nematicidal effect in %” value in series [1] amounted to 100%. Also, the “efficacy in % (spider mites killed)” value in series [2] (application rate 500 g/ha) is on record as 100%.
Consider `Cc1cc(F)c(-n2cnc3onc(C)c3c2=O)cc1[S+]([O-])CC(F)(F)F` (centres unmarked) [Compound 196], for which the “nematicidal effect in %” value in series [1] is given as 100%. In addition, the “efficacy in % (spider mites killed)” value in series [2] (application rate 100 g/ha) is listed as 90%.
Consider `Cc1cc(F)c(-n2cnc3csnc3c2=O)cc1[S+]([O-])CC(F)(F)F` (centres unmarked) [Compound 212], for which, in series [1], the “nematicidal effect in %” value was found to be 100%. Also, in series [2] (application rate 500 g/ha), the “efficacy in % (spider mites killed)” value is on record as 90%.
On the same counts, the results for `Cc1cc(F)c(-n2cnc3cnn(CC4CC4)c3c2=O)cc1SCC(F)(F)F` [Compound 167] are 100% and 100%.
As for `Cc1cc(F)c(-n2cnc3onc(C(F)(F)F)c3c2=O)cc1[S+]([O-])CC(F)(F)F` (centres unmarked) [Compound 199], the “nematicidal effect in %” value in series [1] is on record as 100%. In addition, in series [2] (application rate 500 g/ha), the “efficacy in % (spider mites killed)” value is reported as 90%.
Turning to `Cc1nc2cnn(C)c2c(=O)n1-c1cc(SCC(F)(F)F)c(Cl)cc1F` [Compound 149], the “nematicidal effect in %” value in series [1] stood at 100%. Further, in series [2] (application rate 500 g/ha), the “efficacy in % (spider mites killed)” value amounted to 100%.
`CCc1noc2ncn(-c3cc(SCC(F)(F)F)c(C)cc3F)c(=O)c12` [Compound 195]: the “nematicidal effect in %” value in series [1] was 90%. Also, in series [2] (application rate 500 g/ha), the “efficacy in % (spider mites killed)” value came out at 90%.
Take `Cc1cc(F)c(-n2c(C)nc3ncsc3c2=O)cc1[S+]([O-])CC(F)(F)F` (centres unmarked) [Compound 188]: the “nematicidal effect in %” value in series [1] was 90%. Besides, the “efficacy in % (spider mites killed)” value in series [2] (application rate 500 g/ha) came to 100%.
In the case of `Cc1ccc(-n2cnc3cnn(C)c3c2=O)cc1[S+]([O-])CC(F)(F)F` (centres unmarked) [Compound 142], in series [1], the “nematicidal effect in %” value was determined as 100%. For the same compound, in series [2] (application rate 500 g/ha), the “efficacy in % (spider mites killed)” value worked out at 100%.
Take `Cc1nc2cnn(C)c2c(=O)n1-c1cc([S+]([O-])CC(F)(F)F)c(Cl)cc1F` (centres unmarked) [Compound 155]: the “nematicidal effect in %” value in series [1] turned out to be 100%. For the same compound, the “efficacy in % (spider mites killed)” value in series [2] (application rate 500 g/ha) is 90%.
Consider `Cc1cc(F)c(-n2c(C)nc3cnn(C(C)C)c3c2=O)cc1SCC(F)(F)F` [Compound 162], for which the “nematicidal effect in %” value in series [1] is on record as 90%. Moreover, the “efficacy in % (spider mites killed)” value in series [2] (application rate 500 g/ha) was determined as 100%.
For `Cc1cc(F)c(-n2cnc3onc(C(C)C)c3c2=O)cc1[S+]([O-])CC(F)(F)F` (centres unmarked) [Compound 200], in that order: 100% and 100%.
As for `CCc1noc2ncn(-c3cc([S+]([O-])CC(F)(F)F)c(C)cc3F)c(=O)c12` (centres unmarked) [Compound 198], in series [1], the “nematicidal effect in %” value is reported as 100%. The “efficacy in % (spider mites killed)” value in series [2] (application rate 500 g/ha) was determined as 90%.
For `CCn1ncc2ncn(-c3cc([S+]([O-])CC(F)(F)F)c(C)cc3F)c(=O)c21` (centres unmarked) [Compound 163], in that order: 90% and 100%.
For `Cn1ncc2ncn(-c3cc(SCC(F)(F)F)c(Cl)cc3F)c(=O)c21` [Compound 148], in that order: 100% and 100%.
For the compound `Cc1cc(Cl)c(-n2nnc3cnn(C)c3c2=O)cc1[S+]([O-])CC(F)(F)F` (centres unmarked) [Compound 153], the “nematicidal effect in %” value in series [1] was 100%. The “efficacy in % (spider mites killed)” value in series [2] (application rate 500 g/ha) was found to be 90%.
For `Cc1cc(F)c(-n2c(C)nc3snc(C)c3c2=O)cc1[S+]([O-])CC(F)(F)F` (centres unmarked) [Compound 210], in that order: 100% and 100%.
In the case of `Cc1cc(F)c(-n2c(C(F)(F)F)nc3c(cnn3CC(F)(F)F)c2=O)cc1SCC(F)(F)F` [Compound 19], in series [3], the “logP[a]” value turned out to be 4.20 and the “logP[b]” value stood at 4.10. Besides, the “nematicidal effect in %” value in series [1] was determined as 90%.

These data come from US9512128B2 (BAYER CROPSCIENCE AG, priority 2012, dated 2016).
